Results as given in patent publication US12448376B2, “Phenothiazine ferroptosis inhibitor, preparation method therefor and application thereof” (CHENGDU HENGHAO INNOVATIVE SCIENCE AND TECHNOLOGY CO., LTD., priority 2019, dated 2025).

What was measured:
fibrosarcoma cell line = assay: Ferroptosis screening model, MTT cell viability assay with Erastin induction; type: cell-based
Procedure: In this example, in order to study the inhibitor of ferroptosis, a screening model for ferroptosis was constructed in house, and the details are as follows:
The screening model for ferroptosis mainly used the MTT cell viability assay. First, the fibrosarcoma cell line was cultured in a dish, and the cells in the logarithmic growth phase were seeded in a 96-well plate in specific numbers (3000-10000 cells/well), 100 μL per well, and then cultured in an incubator at 37° C. and 5% CO2 to allow the cells to adhere. After 24 h, 100 μL of compounds at certain concentrations prepared in the indicated medium and the ferroptosis inducer Erastin (final concentration of 10 μM) were added, and wells in triplicate were set up for each compound to ensure the accuracy of the results. A negative control group, positive control group (5 μM of ferrostain-1), blank control group and solvent control group were also set. After dosing, cells were placed in the incubator and cultured for 72 h. On the day of the MTT test, MTT test solution (5 mg/mL MTT solution dissolved in physiological saline, stored at 4° C. in the dark) was pre-prepared, and 20 μL was added to each well. Cells were placed in the incubator and cultured for another 2-4 h. Then, 50 μL of 20% SDS solution (dissolved in MiliiQ water, added with 1% concentrated hydrochloric acid) was added to each well, and cells were placed in the incubator overnight. The next day, the absorbance value at 570 nm was detected with a microplate reader to calculate the inhibition rate of the drug on ferroptosis. Generally, the absorbance value of the control group should be between 0.8-1.2 as a normal value.
The curve of inhibition rate change was fitted using Graph Pad Prism 5 software to obtain EC50.

[1] = Hemolysis reaction (statement only, no method)
[2] = system: middle cerebral artery occlusion (MCAO) cerebral stroke model in rat; assay: Rat MCAO cerebral stroke model, single administration, TTC staining; type: in vivo, SD rats; conditions: for Infarct area weight: tail vein injection within 10 min of reperfusion; for Infarct area weight / Infarct size: 24 h after reperfusion; for Inhibition rate of cerebral infarction / Infarct size: tail vein injection; for Inhibition rate of cerebral infarction: calculated from infarct size against model control; for Infarct size: infarct tissue weight as percentage of whole brain
Procedure: Through the middle cerebral artery occlusion (MCAO) cerebral stroke model (also known as cerebral ischemia model) in rat, the therapeutic effects of the compounds of the present disclosure at different doses and single administration on ischemic cerebral stroke in SD rats were studied. […] The ischemic rats were placed at room temperature to keep their body temperature at 37° C. After 90 min, the suture was pulled out for reperfusion. […] After 24 h of reperfusion, the animals were scored by NSS to evaluate neurological function, and then the animals were dissected to remove the brain for TTC staining. By determining the size of cerebral infarction and calculating the inhibition rate, the therapeutic effects of the test compounds on ischemic cerebral stroke in rats were evaluated comprehensively. […] The percentage of infarct tissue weight in the whole brain was used as the infarct size (%), and the inhibition rate (%) of each drug treatment group was calculated based on the infarct size. The inhibition rate was calculated with the following formula: [formula] 2.

human hERG ion channel = biological target: T1, human hERG ion channel (Homo sapiens, UniProt Q12809); assay: hERG whole-cell patch clamp in HEK293 cells; type: cell-based; conditions: for IC50: hERG tail current, HEK293 cells, 0.3-30 μM, room temperature
T1 construct: expressed in transfected cells; host or cells: HEK293 cells stably expressing hERG
T1 sequence (Q12809 whole entry): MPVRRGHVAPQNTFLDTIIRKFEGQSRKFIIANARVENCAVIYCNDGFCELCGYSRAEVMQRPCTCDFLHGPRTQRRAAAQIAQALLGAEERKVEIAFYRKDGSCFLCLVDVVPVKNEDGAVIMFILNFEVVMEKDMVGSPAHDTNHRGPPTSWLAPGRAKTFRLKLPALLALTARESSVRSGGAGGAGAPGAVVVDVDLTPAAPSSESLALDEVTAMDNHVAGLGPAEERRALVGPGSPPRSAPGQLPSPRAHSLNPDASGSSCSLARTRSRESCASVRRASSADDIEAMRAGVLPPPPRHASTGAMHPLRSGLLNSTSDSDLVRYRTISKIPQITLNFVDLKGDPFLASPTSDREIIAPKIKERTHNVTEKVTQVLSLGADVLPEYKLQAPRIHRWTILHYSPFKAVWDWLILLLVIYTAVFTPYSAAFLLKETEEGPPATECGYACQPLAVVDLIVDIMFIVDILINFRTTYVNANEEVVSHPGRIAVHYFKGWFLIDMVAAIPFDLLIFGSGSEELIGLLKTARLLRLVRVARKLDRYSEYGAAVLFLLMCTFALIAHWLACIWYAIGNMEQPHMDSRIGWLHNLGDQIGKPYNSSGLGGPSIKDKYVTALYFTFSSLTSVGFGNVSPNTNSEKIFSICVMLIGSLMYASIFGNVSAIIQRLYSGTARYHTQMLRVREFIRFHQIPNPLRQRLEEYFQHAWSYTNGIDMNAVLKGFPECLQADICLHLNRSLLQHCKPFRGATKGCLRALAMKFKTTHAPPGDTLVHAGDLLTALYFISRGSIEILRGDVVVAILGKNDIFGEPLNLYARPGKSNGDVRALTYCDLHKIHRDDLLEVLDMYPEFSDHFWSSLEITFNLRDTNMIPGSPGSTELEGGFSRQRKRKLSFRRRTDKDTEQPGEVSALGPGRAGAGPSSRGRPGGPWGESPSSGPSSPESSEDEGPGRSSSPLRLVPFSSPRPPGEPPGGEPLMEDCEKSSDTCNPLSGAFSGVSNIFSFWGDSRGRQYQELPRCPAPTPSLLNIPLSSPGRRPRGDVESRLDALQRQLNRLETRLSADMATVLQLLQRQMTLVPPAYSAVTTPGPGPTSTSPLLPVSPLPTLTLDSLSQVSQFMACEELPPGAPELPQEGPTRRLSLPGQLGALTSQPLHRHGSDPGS
Procedure: Effect of Compounds of the Present Disclosure on Human hERG Ion Channel Expressed in HEK293 Cells at Steady State Determined by Patch Clamp
The hERG ion channel steady-state expressing HEK293 cells were transferred to a perfusion tank and perfused with extracellular fluid at room temperature. Each cell was used as a control. All test compounds were dissolved by shaking with dimethyl sulfoxide and prepared as serial concentrations of 0.3 μM, 1 μM, 3 μM, 10 μM and 30 μM. The test compounds were perfused using a perfusion system utilizing their own gravity. At least two cells were tested for each concentration. After the current was stable (or 5 min), the current magnitude changes before and after the compound was used were compared to calculate the blocking effect of the compound. Test electrodes were pulled with PC-10. Whole-cell patch clamp was used to record, with noise filtered at one-fifth of the sampling frequency. […] This procedure was repeated every 15 seconds. hERG tail currents were pure hERG currents. After the current was stabilized, the administration was performed by continuous extracellular perfusion from low concentration to high concentration. Starting from a low concentration, perfusion was continued until the drug effect was stable, and then perfusion of the next concentration was performed.
Stimulus delivery and signal acquisition were performed by the Patch Master software. The signal was amplified with a patch clamp amplifier with a filtering of 10 KHz. Fit Master, EXCEL, Graph Pad Prism and SPSS 21.0 were used for further data analysis and curve fitting. In data processing, when judging the blocking effect on hERG the peak value of the tail current and its baseline were corrected. The effect of each compound at different concentrations was expressed by the inhibition rate of the tail current. Inhibition rate %=100×(peak value of tail current before administration-peak value of tail current after administration)/peak value of tail current before administration
IC50 values were fitted by the Hill equation: […]

[3] = 72 h, inhibition of ferroptosis induced by Erastin 10 μM, MTT; average of three tests
[4] = inhibition of ferroptosis induced by Erastin 10 μM, 72 h, MTT; average of three tests
[5] = summary of Table 1, compared with positive drug ferrostain-1

| SMILES | EC50 (fibrosarcoma cell line; [3]) | other results |
| --- | --- | --- |
| C=C(c1ccc2c(c1)Nc1ccccc1S2)c1cnc2c(cnn2C2CN(C(=O)OC(C)(C)C)C2)c1 [Compound 30] | 92 nM | – |
| C=C(c1ccc2c(c1)Nc1ccccc1S2)c1cnc2c(cnn2C2CCNCC2)c1 [Compound 36] | 16 nM | – |
| C=C(c1ccc2c(c1)Nc1ccccc1S2)c1cn2cc(C(=O)N[C@H](C)c3ccccc3)nc2cn1 [Compound 26] | 76 nM | – |
| C=C(c1ccc2c(c1)Nc1ccccc1S2)c1ccc2c(C=O)c[nH]c2c1 [Compound 10] | 15 nM | – |
| C=C(c1ccc2c(c1)Nc1ccccc1S2)c1cnc2c(cnn2C2CCOC2)c1 (stereo not drawn) [Compound 19] | – | EC50 (fibrosarcoma cell line; [4]): 13 nM |
| C=C(c1ccc2c(c1)Nc1ccccc1S2)c1cnc2nc(C(=O)NCCN(C)C)cn2c1 [Compound 22] | 14 nM | – |
| C=C(c1ccc2c(c1)Nc1ccccc1S2)c1ccc2ncccc2c1 [Compound 14] | 6 nM | hemolysis reaction (in words) [1]: no hemolysis reaction; Infarct area weight ([2]; 2.5 mg/kg): 0.15 ± 0.07 g; Inhibition rate of cerebral infarction ([2]; 2.5 mg/kg): 14.0%; Infarct size ([2]; 2.5 mg/kg): 12.11 ± 5.69%; Infarct area weight ([2]; 5 mg/kg): 0.12 ± 0.05 g; Inhibition rate of cerebral infarction ([2]; 5 mg/kg): 29.3%; Infarct size ([2]; 5 mg/kg): 9.95 ± 4.69%; range of necrosis of brain tissue lesions (in words) ([2]; high and low dose administration groups): reduce the range of necrosis of brain tissue lesions; effect on the human hERG ion channel (in words) (human hERG ion channel; HEK293 cells in a steady state): no significant effect; IC50 (human hERG ion channel): > 30000 nM; improvement of cardiac safety compared with compound 59 of CN111574474A (human hERG ion channel; ratio of hERG IC50 values): about 50 times; inhibitory effects on ferroptosis (in words) (fibrosarcoma cell line; [5]): excellent inhibitory effects on ferroptosis, significantly better than the positive drug ferrostain-1 |
| C=C(c1ccc2c(c1)Nc1ccccc1S2)c1cnc2c(cnn2C2CCOC2)c1 (stereo not drawn) [Compound 32] | – | EC50 (fibrosarcoma cell line; [4]): 50 nM |
| CCOC(=O)c1ccc(NC2CCCCC2)c(N)c1 [Ferrostain-1, Ferrostatin-1, reference compound] | – | EC50 (fibrosarcoma cell line; 72 h): 60 nM |
| C=C(c1ccc2c(c1)Nc1ccccc1S2)c1ccc2cc(C(=O)NCCN3CCOCC3)[nH]c2c1 [Compound 9] | 12 nM | – |
| C=C(c1ccc2c(c1)Nc1ccccc1S2)c1cnc2[nH]ncc2c1 [Compound 31] | 11 nM | – |
| C=C(c1ccc(S(=O)(=O)NC2CCN(C)CC2)cc1)c1ccc2c(c1)Nc1ccccc1S2 [Comparative Compound 2, reference compound] | – | IC50 (human hERG ion channel): 710 nM |
| C=C(c1ccc2c(c1)Nc1ccccc1S2)c1cnc2sccc2c1 [Compound 35] | 74 nM | – |
| CC(c1ccc(N2CCN(C)CC2)cc1)c1ccc2c(c1)Nc1ccccc1S2 (stereo not drawn) [Comparative Compound 1, reference compound] | – | Infarct area weight ([2]; 2.5 mg/kg): 0.14 ± 0.07 g; Inhibition rate of cerebral infarction ([2]; 2.5 mg/kg): 19.0%; Infarct area weight ([2]; 5 mg/kg): 0.11 ± 0.05 g; Inhibition rate of cerebral infarction ([2]; 5 mg/kg): 33.6% |
| C=C(c1ccc2c(c1)Nc1ccccc1S2)c1cnc2c(cnn2C2CN(C(=O)OC(C)(C)C)C2)c1 [Compound 8] | – | EC50 (fibrosarcoma cell line; [4]): 55 nM |
| C=C(c1ccc2c(c1)Nc1ccccc1S2)c1ccc2c(c1)SCC(=O)N2 [Compound 11] | 33 nM | – |
| CCCCC1OC(=O)c2ccccc21 (stereo not drawn) [Positive drug, butylphthalide, reference compound] | – | Infarct area weight ([2]; 5 mg/kg): 0.18 ± 0.09 g; Inhibition rate of cerebral infarction ([2]; 5 mg/kg): 1.1%; Infarct size ([2]; 5 mg/kg): 13.93 ± 6.97% |
| C=C(c1ccc2c(c1)Nc1ccccc1S2)c1ccc2c(c1)OCCO2 [Compound 13] | 37 nM | – |
| C=C(c1ccc2c(c1)Nc1ccccc1S2)c1ccc2c(C(=O)NCCN3CCOCC3)c[nH]c2c1 [Compound 6] | 15 nM | – |
| C=C(c1ccc2c(c1)CCN2C(C)=O)c1ccc2c(c1)Nc1ccccc1S2 [Compound 16] | 10 nM | – |

Now from value to compound, other results behind:

| EC50 (fibrosarcoma cell line; [3]) | SMILES | other results |
| --- | --- | --- |
| 73 nM | C=C(c1ccc2c(c1)Nc1ccccc1S2)c1cnc2c(cnn2CCOC)c1 [Compound 27] | – |
| 67 nM | C=C(c1ccc2c(c1)Nc1ccccc1S2)c1cn2cc(C(=O)NC3CCOCC3)nc2cn1 [Compound 23] | – |
| 55 nM | C=C(c1ccc2c(c1)Nc1ccccc1S2)c1cn2cc(C(=O)N[C@H](C)c3cccc4ccccc34)nc2cn1 [Compound 25] | – |
| 56 nM | C=C(c1ccc2c(c1)Nc1ccccc1S2)c1cn2cc(C(=O)NCC3CCOCC3)nc2cn1 [Compound 24] | – |
| 24 nM | C=C(c1ccc2c(c1)Nc1ccccc1S2)c1cn2ccnc2c(N2CCOCC2)n1 [Compound 7] | – |
| 10 nM | C=C(c1ccc2c(c1)Nc1ccccc1S2)c1ccc2c(c1)OC(F)(F)O2 [Compound 15] | – |
| 42 nM | C=C(c1ccc2c(c1)Nc1ccccc1S2)c1cnc2c(ccn2C)c1 [Compound 34] | – |
| 67 nM | C=C(c1ccc2c(c1)Nc1ccccc1S2)c1cnc2c(cnn2CC)c1 [Compound 33] | – |
| 0.2 nM | C=C(c1ccc2c(c1)Nc1ccccc1S2)c1cnc2c(cnn2C2CCN(C)CC2)c1 [Compound 20] | inhibitory effects on ferroptosis (in words) (fibrosarcoma cell line; [5]): excellent inhibitory effects on ferroptosis, significantly better than the positive drug ferrostain-1 |
| 76 nM | C=C(c1ccc2c(c1)Nc1ccccc1S2)c1cnc2c(cnn2CC2CCN(C(=O)OC(C)(C)C)CC2)c1 [Compound 4] | – |
| 89 nM | C=C(c1cnc2c(c1)CCN2)c1ccc2c(c1)Nc1ccccc1S2 [Compound 17] | – |
| 29 nM | C=C(c1ccc2c(c1)Nc1ccccc1S2)c1cnc2c(cnn2C2CCN(C(=O)OC(C)(C)C)CC2)c1 [Compound 29] | – |
| 38 nM | C=C(c1ccc2c(c1)Nc1ccccc1S2)c1cnc2c(cnn2CC2CCOCC2)c1 [Compound 2] | – |
